Converted amounts (≈) assume the structure as drawn. *1 amine or outer side, *2 acyl side, *3 side chain or, on linkers, in order; H or OH if unused. Where a SMILES comes first, the peptide text is derived from it. [ ]: non-standard residue; d: D form. The star is where a group is joined. X13 = C[C@H](CO[C@H](CC1CC2(CCC2)C1)[C@@H](C)C(=O)[*:2])N[*:1]; X2 = CCCCCC[C@@H](OC[C@@H](C)N[*:1])[C@@H](C)C(=O)[*:2]; X14 = CCCCCC[C@@H](OCCN[*:1])[C@@H](C)C(=O)[*:2]; Cyclobutyl(trans-3-NH2) = N[C@H]1C[C@H](*)C1; Gly(cHept) = N[C@H](C(=O)O)C1CCCCCC1; NMeL = CN[C@@H](CC(C)C)C(=O)O; Chg = N[C@H](C(=O)O)C1CCCCC1; NMeNva = CCC[C@H](NC)C(=O)O; X8 = NC[C@H]1C[C@H](*)C1; Dap = NC[C@H](N)C(=O)O; Propyl(3-NH2) = NCCC*; X3 = NC[C@@H](F)C*
Test system: Escherichia coli (E. coli) strain CFT073 ATCC 700928
Type: cell-based
Conditions: ATCC 700928, 22 h
In short: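 MICs were read after 22 h at 35 °C, with bacteria added to a final OD600 of 0.0005. Compounds were serially diluted 2-fold over ten concentrations from a top of 64, 4, 0.5 or 0.13 μg/mL (protocols 1–4). Medium was cation-adjusted Mueller Hinton II broth plus 0.002% Tween-80, following CLSI M07-A8.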

Row | Structure (SMILES) | MIC [µM]
1 | CCCCCC[C@H]1OCCNC(=O)[C@H](CO[C@H]2C[C@H](N)C2)NC(=O)[C@H](CN)NC(=O)[C@H](C2CCCCCC2)NC(=O)[C@H](CCC)N(C)C(=O)[C@@H]1C [Example 80, (6S,9S,12S,15S,18R,19R)-6-(((1r,3S)-3-Aminocyclobutoxy)methyl)-9-(aminomethyl)-12-cycloheptyl-19-hexyl-16,18-dimethyl-15-propyl-1-oxa-4,7,10,13,16-pentaazacyclononadecane-5,8,11,14,17-pentaone] (cyclo([Dap]S(Cyclobutyl(trans-3-NH2))[X14][NMeNva][Gly(cHept)])) | 12 (≈ 8.66 µg/mL)
2 | CCCCCC[C@H]1OC[C@@H](C)NC(=O)[C@H](COCCCN)NC(=O)[C@H](CN)NC(=O)[C@H](C2CCCCC2)NC(=O)[C@H](CC(C)C)N(C)C(=O)[C@@H]1C [Example 131, (3R,6S,9S,12S,15S,18R,19R)-9-(aminomethyl)-6-(3-aminopropoxymethyl)-12-cyclohexyl-19-hexyl-15-isobutyl-3,16,18-trimethyl-1-oxa-4,7,10,13,16-pentazacyclononadecane-5,8,11,14,17-pentone] (cyclo([Chg][Dap]S(Propyl(3-NH2))[X2][NMeL])) | 11 (≈ 7.96 µg/mL)
3 | CCCCCC[C@H]1OC[C@@H](C)NC(=O)[C@H](CNCCO)NC(=O)[C@H](CN)NC(=O)[C@H](C2CCCCCC2)NC(=O)[C@H](CC(C)C)N(C)C(=O)[C@@H]1C [Example 169, (3R,6S,9S,12S,15S,18R,19R)-9-(Aminomethyl)-12-cycloheptyl-19-hexyl-6-(((2-hydroxyethyl)amino)methyl)-15-isobutyl-3,16,18-trimethyl-1-oxa-4,7,10,13,16-pentaazacyclononadecane-5,8,11,14,17-pentaone] | 6.3 (≈ 4.56 µg/mL)
4 | CCC[C@H]1C(=O)N[C@@H](C2CCCCCC2)C(=O)N[C@@H](CN)C(=O)N[C@@H](CO[C@H]2C[C@H](N)C2)C(=O)NCC(=O)O[C@H](CC2CC3CCC2C3)[C@@H](C)C(=O)N1C (stereo partly drawn) [Example 141, (6S,9S,12S,15S,18R,19R)-6-[(3-aminocyclobutoxy)methyl]-9-(aminomethyl)-12-cycloheptyl-16,18-dimethyl-19-(norbornan-2-ylmethyl)-15-propyl-1-oxa-4,7,10,13,16-pentazacyclononadecane-2,5,8,11,14,17-hexone] | 2.2 (≈ 1.67 µg/mL)
5 | CCCCCCCCCC[C@H]1OC(=O)CNC(=O)[C@H]([C@H](C)O)NC(=O)[C@H](CO)NC(=O)[C@H]([C@@H](C)CC)NC(=O)[C@H](CC(C)C)N(C)C(=O)[C@@H]1C [Example 22, (6S,9S,12S,15S,18R,19R)-19-decyl-6-[(1S)-1-hydroxyethyl]-9-(hydroxymethyl)-15-isobutyl-16,18-dimethyl-12-[(1S)-1-methylpropyl]-1-oxa-4,7,10,13,16-pentazacyclononadecane-2,5,8,11,14,17-hexone] | 13 (≈ 9.26 µg/mL)
6 | CCC[C@H]1C(=O)N[C@@H](C2CCCCC2)C(=O)N[C@@H](CN)C(=O)N[C@@H](CO[C@H]2C[C@H](N)C2)C(=O)N[C@H](C)CO[C@H](CC2CC3(CCC3)C2)[C@@H](C)C(=O)N1C [Example 172, (3R,6S,9S,12S,15S,18R,19R)-6-(((1r,3S)-3-Aminocyclobutoxy)methyl)-9-(aminomethyl)-12-cyclohexyl-3,16,18-trimethyl-15-propyl-19-(spiro[3.3]heptan-2-ylmethyl)-1-oxa-4,7,10,13,16-pentaazacyclononadecane-5,8,11,14,17-pentaone] (cyclo([Chg][Dap]S(Cyclobutyl(trans-3-NH2))[X13][NMeNva])) | 4.4 (≈ 3.28 µg/mL)
7 | CCCCCC[C@H]1OC[C@@H](C)NC(=O)[C@H](COc2ccc(CN)cc2)NC(=O)[C@H](CN)NC(=O)[C@H](C2CCCCC2)NC(=O)[C@H](CC(C)C)N(C)C(=O)[C@@H]1C [Example 76, (3R,6S,9S,12S,15S,18R,19R)-9-(Aminomethyl)-6-((4-(aminomethyl)phenoxy)methyl)-12-cyclohexyl-19-hexyl-15-isobutyl-3,16,18-trimethyl-1-oxa-4,7,10,13,16-pentaazacyclononadecane-5,8,11,14,17-pentaone] | 6.3 (≈ 4.86 µg/mL)
8 | CCCCCCCCCC[C@H]1OC(=O)CNC(=O)[C@H](CO)NC(=O)[C@H](CO)NC(=O)[C@H]([C@@H](C)CC)NC(=O)[C@H](CCC)N(C)C(=O)[C@@H]1C [Example 36, (6S,9S,12S,15S,18R,19R)-19-decyl-6,9-bis(hydroxymethyl)-16,18-dimethyl-12-[(1S)-1-methylpropyl]-15-propyl-1-oxa-4,7,10,13,16-pentazacyclononadecane-2,5,8,11,14,17-hexone] | 25 (≈ 17.1 µg/mL)
9 | CCCCCC[C@H]1OC[C@@H](C)NC(=O)[C@H](CO[C@H]2C[C@H](CN)C2)NC(=O)[C@H](CN)NC(=O)[C@H](C2CCCCCC2)NC(=O)[C@H](CCC)N(C)C(=O)[C@@H]1C [Example 168, (3R,6S,9S,12S,15S,18R,19R)-9-(Aminomethyl)-6-(((1r,3S)-3-(aminomethyl)cyclobutoxy)methyl)-12-cycloheptyl-19-hexyl-3,16,18-trimethyl-15-propyl-1-oxa-4,7,10,13,16-pentaazacyclononadecane-5,8,11,14,17-pentaone] (cyclo([Dap]S(X8)[X2][NMeNva][Gly(cHept)])) | 3.1 (≈ 2.33 µg/mL)

Second part, the compound after the results:

Row | MIC [µM] | Structure (SMILES)
10 | 0.78 (≈ 0.561 µg/mL) | CCC[C@H]1C(=O)N[C@@H](C2CCCCCC2)C(=O)N[C@@H](CN)C(=O)N[C@@H]([C@H](C)O)C(=O)NCC(=O)O[C@H](CC2CC3CCC2CC3)[C@@H](C)C(=O)N1C (stereo partly drawn) [Example 79, (6S,9S,12S,15S,18R,19R)-9-(Aminomethyl)-19-(bicyclo[2.2.2]octan-2-ylmethyl)-12-cycloheptyl-6-((S)-1-hydroxyethyl)-16,18-dimethyl-15-propyl-1-oxa-4,7,10,13,16-pentaazacyclononadecane-2,5,8,11,14,17-hexaone]
11 | 18 (≈ 13 µg/mL) | CCCCCC[C@H]1OC(=O)CNC(=O)[C@H](CNC(=O)CN)NC(=O)[C@H](CN)NC(=O)[C@H](C2CCCCC2)NC(=O)[C@H](CC(C)C)N(C)C(=O)[C@@H]1C [Example 139, 2-amino-N-[[(6S,9S,12S,15S,18R,19R)-9-(aminomethyl)-12-cyclohexyl-19-hexyl-15-isobutyl-16,18-dimethyl-2,5,8,11,14,17-hexaoxo-1-oxa-4,7,10,13,16-pentazacyclononadec-6-yl]methyl]acetamide]
12 | 35 (≈ 29.6 µg/mL) | CCCCCC[C@H]1OC(=O)CNC(=O)[C@H]([C@H](C)O)NC(=O)[C@H](CN)NC(=O)[C@H](C2CCCCC2)NC(=O)[C@H](CC(C)C)N(C)C(=O)[C@@H]1CCc1ccc(-c2ccccc2)cc1 [Example 108, (6S,9S,12S,15S,18R,19R)-9-(aminomethyl)-12-cyclohexyl-19-hexyl-15-isobutyl-16-methyl-18-[2-(4-phenylphenyl)ethyl]-6-[(1S)-1-hydroxyethyl]-1-oxa-4,7,10,13,16-pentazacyclononadecane-2,5,8,11,14,17-hexone]
13 | 1.1 (≈ 0.764 µg/mL) | CCCCCC[C@H]1OC(=O)CNC(=O)[C@H]([C@H](C)O)NC(=O)[C@H](CN)NC(=O)[C@H](C2CCCCCC2)NC(=O)[C@H](CC(C)C)N(C)C(=O)[C@@H]1C [Example 59, (6S,9S,12S,15S,18R,19R)-9-(Aminomethyl)-12-cycloheptyl-19-hexyl-6-((S)-1-hydroxyethyl)-15-isobutyl-16,18-dimethyl-1-oxa-4,7,10,13,16-pentaazacyclononadecane-2,5,8,11,14,17-hexaone]
14 | 25 (≈ 17.9 µg/mL) | CC(C)C[C@H]1C(=O)N[C@@H](C2CCCCC2)C(=O)N[C@@H](CN)C(=O)N[C@@H]([C@H](C)O)C(=O)NCC(=O)O[C@H](CCCCC(F)CF)[C@@H](C)C(=O)N1C (stereo partly drawn) [Example 117, (6S,9S,12S,15S,18R,19R)-9-(aminomethyl)-12-cyclohexyl-19-(5,6-difluorohexyl)-15-isobutyl-16,18-dimethyl-6-[(1S)-1-hydroxyethyl]-1-oxa-4,7,10,13,16-pentazacyclononadecane-2,5,8,11,14,17-hexone]
15 | 8.8 (≈ 5.97 µg/mL) | CCCCCC[C@H]1OC(=O)CNC(=O)[C@H]([C@H](C)O)NC(=O)[C@H](CN)NC(=O)C(C2CC3CCC2C3)NC(=O)[C@H](CCC)N(C)C(=O)[C@@H]1C (single isomer, unassigned) [Example 69]
16 | 6.3 (≈ 4.29 µg/mL) | CCCCCC[C@H]1OC(=O)CNC(=O)[C@H]([C@H](C)O)NC(=O)[C@H](CN)NC(=O)[C@H]([C@H](C)CC)NC(=O)[C@H](CC2CCCC2)N(C)C(=O)[C@@H]1C [Example 104, (6S,9S,12S,15S,18R,19R)-9-(aminomethyl)-15-(cyclopentylmethyl)-19-hexyl-16,18-dimethyl-6-[(1S)-1-hydroxyethyl]-12-[(1R)-1-methylpropyl]-1-oxa-4,7,10,13,16-pentazacyclononadecane-2,5,8,11,14,17-hexone]

Same assay, conditions: E. coli CFT073 ATCC 700928; Mueller Hinton II cation adjusted Broth with 0.002% v/v Tween-80; 35° C. for 22 hours; lowest concentration that completely prevented bacterial growth

Row | Structure (SMILES) | MIC [µM]
17 | CCCCCCCCCC[C@H]1OC(=O)CNC(=O)[C@H](CO)NC(=O)[C@H](CO)NC(=O)[C@H]([C@@H](C)CC)NC(=O)[C@H](CC(C)C)N(C)C(=O)[C@@H]1C [Example 18, (6S,9S,12S,15S,18R,19R)-19-decyl-6,9-bis(hydroxymethyl)-15-isobutyl-16,18-dimethyl-12-[(1S)-1-methylpropyl]-1-oxa-4,7,10,13,16-pentazacyclononadecane-2,5,8,11,14,17-hexone] | 19 (≈ 13.3 µg/mL)
18 | CCCCCC[C@H]1OC[C@@H](C)NC(=O)[C@H](COC[C@H](F)CN)NC(=O)[C@H](CN)NC(=O)[C@H](C2CCCCC2)NC(=O)[C@H](CC(C)C)N(C)C(=O)[C@@H]1C [Example 154, (3R,6S,9S,12S,15S,18R,19R)-6-(((R)-3-Amino-2-fluoropropoxy)methyl)-9-(aminomethyl)-12-cyclohexyl-19-hexyl-15-isobutyl-3,16,18-trimethyl-1-oxa-4,7,10,13,16-pentaazacyclononadecane-5,8,11,14,17-pentaone] (cyclo([Chg][Dap]S(X3)[X2][NMeL])) | 12 (≈ 8.9 µg/mL)

Reference: US11279735B2, “Cyclic peptide antibiotics” (priority 2017, dated 2022)
